Data as given in US20240358693A1, “METHODS OF TREATING PAIN” (Aisa Pharma, Inc., priority 2023, published 2024).

Test system: participants with SSc-RP
Test: Scleroderma Health Assessment Questionnaire (SHAQ): disability indices and visual analog scales
Format: in vivo, human
How it was run: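 Participants with SSc-RP completed the SHAQ at screening and each in-clinic visit. Standard and alternative disability indices (eight categories, 0–3; standard adjusts for aids/assistance) plus Raynaud's VAS on interference over the past 7 days. Reported as absolute change from baseline to end of each dosing period.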

[1] = Modified ITT, Part A, dose Cilnidipine 10 mg, Tadalafil 5 mg, or 10 mg + 5 mg
[2] = PP Population, Part A, sensitivity analysis, cilnidipine 10 mg and/or tadalafil 5 mg as labelled
[3] = Tadalafil 5 mg (N = 4), Modified ITT, Part A
[4] = Tadalafil 5 mg (N = 4), patients with diagnosis of SSc, sensitivity analysis, Modified ITT, Part A
[5] = Tadalafil 5 mg, Day 12, PP Population Part A, SSc patients
[6] = Tadalafil 5 mg, Day 12, PP Population, Part A
[7] = Tadalafil 5 mg, PP Population Part A, SSc patients

CN1CC(=O)N2[C@H](c3ccc4c(c3)OCO4)c3[nH]c4ccccc4c3C[C@@H]2C1=O [Tadalafil, tadalafil]
SHAQ alternative disability index, In Clinic Visit (Day 12), Mean [1]: 0.375 | SHAQ alternative disability index, In Clinic Visit (Day 12), Median [1]: 0.250 | SHAQ Visual Analogue Scale - Breathing Problems: Baseline, Mean [2]: 3.240 | SHAQ Visual Analogue Scale - Breathing Problems: Baseline, Median [2]: 3.100 | SHAQ Visual Analogue Scale - Breathing Problems: Change from Baseline (Day 12), Mean [2]: 0.500 | SHAQ Visual Analogue Scale - Breathing Problems: Change from Baseline (Day 12), Median [2]: 1.050 | SHAQ Visual Analogue Scale - Breathing Problems: In-Clinic Visit (Day 12), Mean [2]: 4.300 | SHAQ Visual Analogue Scale - Breathing Problems: In-Clinic Visit (Day 12), Median [2]: 4.000 | SHAQ Visual Analogue Scale - Breathing Problems: Percent Change from Baseline (Day 12), Mean [2]: −2.66% | SHAQ Visual Analogue Scale - Breathing Problems: Percent Change from Baseline (Day 12), Median [2]: 29.58% | SHAQ Visual Analogue Scale - Finger Ulcers: Baseline, Mean [2]: 1.700 | SHAQ Visual Analogue Scale - Finger Ulcers: Baseline, Median [2]: 0.100 | SHAQ Visual Analogue Scale - Finger Ulcers: Change from Baseline (Day 12), Mean [2]: 0.250 | SHAQ Visual Analogue Scale - Finger Ulcers: Change from Baseline (Day 12), Median [2]: 0.000 | SHAQ Visual Analogue Scale - Finger Ulcers: In-Clinic Visit (Day 12), Mean [2]: 2.325 | SHAQ Visual Analogue Scale - Finger Ulcers: In-Clinic Visit (Day 12), Median [2]: 0.050 | SHAQ Visual Analogue Scale - Finger Ulcers: Percent Change from Baseline (Day 12), Mean [2]: 6.10% | SHAQ Visual Analogue Scale - Finger Ulcers: Percent Change from Baseline (Day 12), Median [2]: 6.10% | SHAQ Visual Analogue Scale - Intestinal Problems: Baseline, Mean [2]: 2.700 | SHAQ Visual Analogue Scale - Intestinal Problems: Baseline, Median [2]: 0.900 | SHAQ Visual Analogue Scale - Intestinal Problems: Change from Baseline (Day 12), Mean [2]: −0.125 | SHAQ Visual Analogue Scale - Intestinal Problems: Change from Baseline (Day 12), Median [2]: 0.000 | SHAQ Visual Analogue Scale - Intestinal Problems: In-Clinic Visit (Day 12), Mean [2]: 3.025 | SHAQ Visual Analogue Scale - Intestinal Problems: In-Clinic Visit (Day 12), Median [2]: 1.450 | SHAQ Visual Analogue Scale - Intestinal Problems: Percent Change from Baseline (Day 12), Mean [2]: −6.92% | SHAQ Visual Analogue Scale - Intestinal Problems: Percent Change from Baseline (Day 12), Median [2]: 0.00% | SHAQ Visual Analogue Scale - Overall Disease Severity: Baseline, Mean [2]: 4.100 | SHAQ Visual Analogue Scale - Overall Disease Severity: Baseline, Median [2]: 5.500 | SHAQ Visual Analogue Scale - Overall Disease Severity: Change from Baseline (Day 12), Mean [2]: 0.625 | SHAQ Visual Analogue Scale - Overall Disease Severity: Change from Baseline (Day 12), Median [2]: 0.700 | SHAQ Visual Analogue Scale - Overall Disease Severity: In-Clinic Visit (Day 12), Mean [2]: 5.600 | SHAQ Visual Analogue Scale - Overall Disease Severity: In-Clinic Visit (Day 12), Median [2]: 6.550 | SHAQ Visual Analogue Scale - Overall Disease Severity: Percent Change from Baseline (Day 12), Mean [2]: 32.49% | SHAQ Visual Analogue Scale - Overall Disease Severity: Percent Change from Baseline (Day 12), Median [2]: 26.79% | SHAQ Visual Analogue Scale - Raynaud's: Baseline, Mean [2]: 4.860 | SHAQ Visual Analogue Scale - Raynaud's: Baseline, Median [2]: 6.400 | SHAQ Visual Analogue Scale - Raynaud's: Change from Baseline (Day 12), Mean [2]: −0.825 | SHAQ Visual Analogue Scale - Raynaud's: Change from Baseline (Day 12), Median [2]: −0.500 | SHAQ Visual Analogue Scale - Raynaud's: In-Clinic Visit (Day 12), Mean [2]: 4.950 | SHAQ Visual Analogue Scale - Raynaud's: In-Clinic Visit (Day 12), Median [2]: 5.200 | SHAQ Visual Analogue Scale - Raynaud's: Percent Change from Baseline (Day 12), Mean [2]: −19.71% | SHAQ Visual Analogue Scale - Raynaud's: Percent Change from Baseline (Day 12), Median [2]: −20.67% | SHAQ Overall Severity: Baseline, Mean [3]: 4.975 | SHAQ Overall Severity: Baseline, Median [3]: 6.000 | SHAQ Overall Severity: Change from Baseline, Mean [3]: 0.625, | SHAQ Overall Severity: Change from Baseline, Median [3]: 0.700 | SHAQ Overall Severity: Day 12, Mean [3]: 5.600 | SHAQ Overall Severity: Day 12, Median [3]: 6.550 | SHAQ Overall Severity: Percent Change from Baseline, Mean [3]: 32.49% | SHAQ Overall Severity: Percent Change from Baseline, Median [3]: 26.790% | SHAQ Standard Disability Index: Baseline, Mean [4]: 0.594 | SHAQ Standard Disability Index: Baseline, Median [4]: 0.625 | SHAQ Standard Disability Index: Change from Baseline, Mean [4]: −0.063 | SHAQ Standard Disability Index: Change from Baseline, Median [4]: −0.063 | SHAQ Standard Disability Index: Day 12, Mean [4]: 0.531 | SHAQ Standard Disability Index: Day 12, Median [4]: 0.563 | SHAQ Standard Disability Index: Percent Change from Baseline, Mean [4]: −9.26% | SHAQ Standard Disability Index: Percent Change from Baseline, Median [4]: −11.11% | SHAQ Visual Analogue Scale - Breathing Problems, Change from Baseline, Mean [5]: 0.500 | SHAQ Visual Analogue Scale - Breathing Problems, Change from Baseline, Median [5]: 1.050 | SHAQ Visual Analogue Scale - Breathing Problems, Percent Change from Baseline, Mean [5]: −2.66% | SHAQ Visual Analogue Scale - Breathing Problems, Percent Change from Baseline, Median [5]: 29.58% | SHAQ Visual Analogue Scale - Finger Ulcers, Change from Baseline, Mean [5]: 0.250 | SHAQ Visual Analogue Scale - Finger Ulcers, Change from Baseline, Median [5]: 0.000 | SHAQ Visual Analogue Scale - Finger Ulcers, Percent Change from Baseline, Mean [5]: 6.10% | SHAQ Visual Analogue Scale - Finger Ulcers, Percent Change from Baseline, Median [5]: 6.10% | SHAQ Visual Analogue Scale - Intestinal Problems, Change from Baseline, Mean [5]: −0.125 | SHAQ Visual Analogue Scale - Intestinal Problems, Change from Baseline, Median [5]: 0.000 | SHAQ Visual Analogue Scale - Intestinal Problems, Percent Change from Baseline, Mean [5]: −6.92% | SHAQ Visual Analogue Scale - Intestinal Problems, Percent Change from Baseline, Median [5]: 0.00% | SHAQ Visual Analogue Scale - Overall Disease Severity, Change from Baseline, Mean [5]: 0.625 | SHAQ Visual Analogue Scale - Overall Disease Severity, Change from Baseline, Median [5]: 0.700 | SHAQ Visual Analogue Scale - Overall Disease Severity, Percent Change from Baseline, Mean [5]: 32.49% | SHAQ Visual Analogue Scale - Overall Disease Severity, Percent Change from Baseline, Median [5]: 26.79% | SHAQ Visual Analogue Scale - Pain, Change from Baseline, Mean [5]: 1.000 | SHAQ Visual Analogue Scale - Pain, Change from Baseline, Median [5]: 0.800 | SHAQ Visual Analogue Scale - Pain, Percent Change from Baseline, Mean [5]: 31.35% | SHAQ Visual Analogue Scale - Pain, Percent Change from Baseline, Median [5]: 10.81% | SHAQ Visual Analogue Scale - Raynaud's, Change from Baseline, Mean [5]: −0.825 | SHAQ Visual Analogue Scale - Raynaud's, Change from Baseline, Median [5]: −0.500 | SHAQ Visual Analogue Scale - Raynaud's, Percent Change from Baseline, Mean [5]: −19.71% | SHAQ Visual Analogue Scale - Raynaud's, Percent Change from Baseline, Median [5]: −20.67% | SHAQ Alternative Disability Index: Change from Baseline, Mean [6]: −0.094 | SHAQ Alternative Disability Index: Change from Baseline, Median [6]: −0.125 | SHAQ Alternative Disability Index: In-Clinic Visit (Day 12), Mean [6]: 0.375 | SHAQ Alternative Disability Index: In-Clinic Visit (Day 12), Median [6]: 0.250 | SHAQ Alternative Disability Index: Percent Change from Baseline, Mean [6]: −43.70% | SHAQ Alternative Disability Index: Percent Change from Baseline, Median [6]: −20.00% | SHAQ Standard Disability Index: Change from Baseline, Mean [6]: −0.063 | SHAQ Standard Disability Index: Change from Baseline, Median [6]: −0.063 | SHAQ Standard Disability Index: In-Clinic Visit (Day 12), Mean [6]: 0.531 | SHAQ Standard Disability Index: In-Clinic Visit (Day 12), Median [6]: 0.563 | SHAQ Standard Disability Index: Percent Change from Baseline, Mean [6]: −9.26% | SHAQ Standard Disability Index: Percent Change from Baseline, Median [6]: −11.11% | SHAQ Visual Analogue Scale - Pain: Change from Baseline, Mean [6]: 1.000 | SHAQ Visual Analogue Scale - Pain: Change from Baseline, Median [6]: 0.800 | SHAQ Visual Analogue Scale - Pain: In-Clinic Visit (Day 12), Mean [6]: 5.300 | SHAQ Visual Analogue Scale - Pain: In-Clinic Visit (Day 12), Median [6]: 5.850 | SHAQ Visual Analogue Scale - Pain: Percent Change from Baseline, Mean [6]: 31.35% | SHAQ Visual Analogue Scale - Pain: Percent Change from Baseline, Median [6]: 10.81% | SHAQ Visual Analogue Scale - Breathing Problems, In-Clinic Visit (Day 12), Mean [7]: 4.300 | SHAQ Visual Analogue Scale - Breathing Problems, In-Clinic Visit (Day 12), Median [7]: 4.000 | SHAQ Visual Analogue Scale - Finger Ulcers, In-Clinic Visit (Day 12), Mean [7]: 2.325 | SHAQ Visual Analogue Scale - Finger Ulcers, In-Clinic Visit (Day 12), Median [7]: 0.050 | SHAQ Visual Analogue Scale - Intestinal Problems, In-Clinic Visit (Day 12), Mean [7]: 3.025 | SHAQ Visual Analogue Scale - Intestinal Problems, In-Clinic Visit (Day 12), Median [7]: 1.450 | SHAQ Visual Analogue Scale - Overall Disease Severity, In-Clinic Visit (Day 12), Mean [7]: 5.600 | SHAQ Visual Analogue Scale - Overall Disease Severity, In-Clinic Visit (Day 12), Median [7]: 6.550 | SHAQ Visual Analogue Scale - Pain, In-Clinic Visit (Day 12), Mean [7]: 5.300 | SHAQ Visual Analogue Scale - Pain, In-Clinic Visit (Day 12), Median [7]: 5.850 | SHAQ Visual Analogue Scale - Raynaud's, In-Clinic Visit (Day 12), Mean [7]: 4.950 | SHAQ Visual Analogue Scale - Raynaud's, In-Clinic Visit (Day 12), Median [7]: 5.200
